Where “and” joins values, the source holds several entries; their conditions need not be identical. Equal entries are not always repeated. Entries after “also recorded” stand apart in the source; their conditions may differ. Where two headings read alike, the source gives them in different places.
Legend:
MCF-7 cells = experiment: MTT cell viability assay, MCF-7; type: cell-based; conditions: Homo sapiens, MCF7
Protocol: (§1) The viability of cancer cells was evaluated by MTT assay. Briefly, cells were inoculated in 96-well culture plates at the density of 1×10^4/well with complete medium containing 10% fetal calf serum in a final volume of 0.2 mL. Cells were incubated at 37°C for at least 24 hours to allow optimal attachment. When the cells reached 60% confluence, they were treated with Cisplatin, HCPT and emodin rhamnopyranosides derivatives in various concentrations, and incubated in a humidity-controlled 5%CO2 incubator at 37°C for 72 hours. Medium were exchanged once every 24 hours. Cell control group and blank group were set up in the same manner, with each group having six parallel wells. Cell survival was assessed by directly adding 22 μL of 5mg/mL MTT to 0.2 mL medium. After three hours, the formazan precipitate was dissolved in 200μL isopropanol per well, and completely mixed under room temperature. Afterwards, the optical density of each well was detected at 570 nm wavelength by iMark microplate reader (Bio-rad,USA). This experiment was repeated at least three times.

HepG2 cells [1] = experiment: MTT cell viability assay, HepG2; type: cell-based, Human; conditions: for IC50: HepG2
Protocol: as §1

[2] = system: Cyto C gene expression of HepG2 cells; experiment: RT-qPCR gene expression, Cytochrome C; type: cell-based, Human; conditions: 48 hours, control 1.030±0.280
Protocol: HepG2 cells were inoculated in 6-well culture plates at a density of 3×10^5 cells/well, and allowed to attach at 37°C for 24 hours. Then cells were treated with specific concentrations of EM-d-Rha and incubated in a humidified incubator supplied with 5% CO2 at 37°C for 48 hours. Medium were changed once every 24 hours. Afterwards, mRNA was extracted from every group using E.Z.N.A.^TM Total RNA Kit II according to the manufacturer’s instructions. The extracted mRNA was dissolved in 20 μL ddH2O (Qiagen) containing diethyl pyrocarbonate (DEPC). The concentration of mRNA was quantified with a NanoDrop ND-100 device (Thermo Fisher Scientific). cDNA was synthesized using 3μg of the extracted mRNA from each sample with PCR system (BIO-RAD,USA). The cDNA synthesis reaction was prepared according to the manufacturer’s instructions by mixing 3μg mRNA, 4.0μL 5× MMLV buffer, 3 μL oligodT18, 0.5μL 10 mM dNTP solution, 0.8μL RNase inhibitor, 3.7μL MMLV Rtase, and 6.0μL DEPC ddH2O in PCR tubes. The reaction condition was 5min at 70°C, 60 min at 42°C and 10min at 4°C. The products were used for subsequent RT-qPCR analysis. The level of mRNA expression was measured by RT-qPCR using a CFX96^TM C1000 Real-Time PCR System (BIO-RAD, USA).The primers were designed using idt.dna software system (http //www.idtdna.com). The specific primers were: Cyto C: 5′-[…]-3′ (forward), 5′- […] -3′ (reverse); Caspase 3: 5′- CCTACAGCCCATTTC TCCATAC-3′ (forward), 5′-[…]-′ (reverse); β-actin: 5′-[…]-3′ (forward), 5′-[…]-3′ (reverse). The product sizes of Cyto C, Caspase 3 and β-actin were 91bp, 125bp and 107bp, respectively. The PCR reaction was performed in a final volume of 20μL using an optical 96-well tray. The reaction mixture consisted of 10μL of SYBR I green Mix/ GoTaq®qPCR
Master Mix (Promega), 0.3μL of each primer (10μM), and 1.0 μL cDNA template. PCR cycling condition was one cycle of 5min at 95°C, 39 cycles and each of which was consisted of 15 seconds at 95°C, 15 seconds at 62°C and 30 seconds at 72°C, with final extension at 60°C for 5 Seconds. The thermal melt parameter was investigated to assess the homogeneity of PCR. Each sample was analyzed in quadruplicate and mean was used for further analysis. The mRNA expression levels of each sample were quantified by measuring the threshold cycle (CT) values of genes. The relative values of the target gene expression were calculated according to CT values of the target genes and the reference gene (β-actin) by applying Livak and Schmittgen method. That is, it equals to 2^-Δ ΔCT, ΔCT equals the mean of Ct for target gene minus the mean of Ct for β-actin gene, and ΔΔCT equals ΔCT of the treated group minus ΔCT of the control group.

HepG2 cells [3] = experiment: Cell cycle analysis (PI staining); type: cell-based, Human; conditions: 48h; for Percentage of cell cycle distribution, G2/M: control 9.68±3.46%; for Percentage of cell cycle distribution, G0/G1: control 67.48±3.94%
Protocol: HepG2 cells in logarithmic growth phase were inoculated in 10cm culture plates at density of 5×10^5 cells and incubated overnight and allowed to attach. After being exposed to EM-d-Rha at specific concentrations for 48h, cells were harvested and washed with cold PBS twice. Then the collected cells were fixed with 1mL PBS and 3mL cold 100% ethanol at 4°C overnight. After that, the cells were again harvested by centrifugation at 300×g for 10 min. The cells were washed with cold PBS and re-suspended in 450 μL PBS, and then treated with 50μL ribonuclease (RNase,10mg/mL) at 37°C for 15min. 500μL of propidium iodide (PI, 50μg/ml) was added to the samples. After the cells were incubated for 30 min at 4°C in the dark, the cell cycle distribution was measured using an BD FACSCalibur Flow cytometer (BD Biosciences, USA), and 10,000cells were counted for each sample. The percentage of cells in different phases of the cell cycle was analyzed by flow Jo (BD Biosciences, USA). The experiment was repeated three times.

HepG2 cells [4] = experiment: Morphological analysis (bright-field microscopy); type: cell-based, Human; conditions: HepG2, 0.1-62.5μM, 48 h, dose dependent
Protocol: For morphological observation, HepG2 cells in logarithmic growth phase were seeded in a 96-well plate at the density of 1×10^4/well with 0.2 mL complete medium containing 10% fetal calf serum. Cells were allowed to attach at 37°C for 24 hours. Then cells were treated with EM-d-Rha and HCPT at a specific concentration. Each group has six parallel wells. […] Medium were exchanged once every 24 hours.

CC(=O)O[C@@H]1[C@@H](O[C@@H]2O[C@@H](C)[C@H](O)[C@@H](OC(C)=O)[C@H]2OC(C)=O)[C@H](C)O[C@@H](Oc2cc(O)c3c(c2)C(=O)c2cc(C)cc(O)c2C3=O)[C@@H]1OC(C)=O [S-8, 3-(2”,3”-Di-O-acetyl-α-L-rhamnopyranosyl-(1→4)-2’,3’-di-O-acetyl-α-L-rhamnopyranosyl)-emodin] gave an inhibition at 0.1 µM (MCF-7 cells; MCF-7, 0.1μM, MTT 72h, read-out: The inhibition rate of EM-d-Rha) of 16.8 ± 1.4%, an inhibition at 0.5 µM (MCF-7 cells; MCF-7, 0.5μM, MTT 72h, read-out: The inhibition rate of EM-d-Rha) of 20.1 ± 3.83% and an inhibition at 2.5 µM (MCF-7 cells; MCF-7, 2.5μM, MTT 72h, read-out: The inhibition rate of EM-d-Rha) of 41.4 ± 6.53%. For the same compound, the inhibition at 12.5 µM (MCF-7 cells; MCF-7, 12.5μM, MTT 72h, read-out: The inhibition rate of EM-d-Rha) was 62.7 ± 6.81%, the inhibition at 62.5 µM (MCF-7 cells; MCF-7, 62.5μM, MTT 72h, read-out: The inhibition rate of EM-d-Rha) was 77.1 ± 5.1% and the IC50 (MCF-7 cells; MTT at 72h, n=3, mean±S.E.M, read-out: IC50 for EM-d-Rha, MCF-7) was 8.56 ± 1.04 µM. The “Activity against HepG2 cells relative to comparators (dose-response curves)” value (HepG2 cells [1]; HepG2 treated for three day, Fig 3, listed as EM-d-Rha) was “stronger in comparison to that of emodin; also recorded: inferior as compared to that of Cisplatin and HCPT”, the IC50 (HepG2 cells [1]; Homo sapiens, MTT at 72h, n=3, mean±S.E.M, read-out: IC50 for EM-d-Rha, HepG2) was 1.81 ± 0.44 µM and the IC50 (HepG2 cells [1]; Homo sapiens, MTT, 72 hours, read-out: IC50 values, HepG2) was 0.65 µg/mL. The inhibition at 0.1 µM (HepG2 cells [1]; Homo sapiens, HepG2, 0.1μM, MTT 72h, read-out: The inhibition rate of EM-d-Rha) was 4.6 ± 5.04%, the inhibition at 0.5 µM (HepG2 cells [1]; Homo sapiens, HepG2, 0.5μM, MTT 72h, read-out: The inhibition rate of EM-d-Rha) was 24.3 ± 6.54% and the inhibition at 2.5 µM (HepG2 cells [1]; Homo sapiens, HepG2, 2.5μM, MTT 72h, read-out: The inhibition rate of EM-d-Rha) was 70.7 ± 3.54%. For the same compound, the inhibition at 12.5 µM (HepG2 cells [1]; Homo sapiens, HepG2, 12.5μM, MTT 72h, read-out: The inhibition rate of EM-d-Rha) was 90.97 ± 0.72%, the inhibition at 62.5 µM (HepG2 cells [1]; Homo sapiens, HepG2, 62.5μM, MTT 72h, read-out: The inhibition rate of EM-d-Rha) was 91.46 ± 0.46% and the “Decrease of IC50 compared to the IC50 of emodin, HepG2” value (HepG2 cells [1]; from Table 1) was 19.68 fold. For the same compound, the “Cytochrome C mRNA expression level relative to controls” value ([2]; HepG2, 0.70μM) was 1.009±0.475 fold, the “Cytochrome C mRNA expression level relative to controls” value ([2]; HepG2, 1.40μM) was 1.086±0.727 fold and the “Cytochrome C mRNA expression level relative to controls” value ([2]; HepG2, 2.80μM, listed as EM-d-Rha) was 3.258±2.402 fold. For the same compound, the “Cytochrome C mRNA expression level relative to controls” value ([2]; HepG2, 5.60μM) was 5.625±4.950 fold, the “Percentage of cell cycle distribution, G2/M” value (“Percentage … G2/M” below) (HepG2 cells [3]; HepG2, 2.5μM) was 7.01±1.73% and the “Percentage of cell cycle distribution, S” value (HepG2 cells [3]; HepG2, 2.5μM, control 23.19±2.18%, listed as EM-d-Rha) was 28.59% and 28.59±3.75%. The “Percentage of cell cycle distribution, G0/G1” value (“Percentage … G0/G1” for short) (HepG2 cells [3]; HepG2, 2.5μM) was 61.37±2.16%, the “Percentage … G2/M” value (HepG2 cells [3]; HepG2, 5.0μM) was 10.31±3.08% and the “Percentage … G0/G1” value (HepG2 cells [3]; HepG2, 5.0μM) was 51.03±8.84%. For the same compound, the “Percentage … G2/M” value (HepG2 cells [3]; HepG2, 10.0μM) was 7.96±2.07%, the “Percentage … G0/G1” value (HepG2 cells [3]; HepG2, 10.0μM) was 52.35±9.37% and the “Cell morphology (bright-field)” value (HepG2 cells [4]) was “morphological changes of apoptosis such as reduction in cell volume and losing cell-cell contacts”.
